Assay results taken from PubChem BioAssay AID1189 (EPA DSSTox, 2008).
Activity calls are given as the source filed them.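 The calls were made as follows: active = a tumor-causing dose value with its tumor site reported for any sex and species group of a rodent or other animal cancer study; inconclusive = only studies judged inadequate by the national testing program; inactive = tested in at least one study, none positive.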 Numbered stars: 1 amine (or outer) side, 2 acyl side, 3 side chain; on linkers, the order of the positions; unused ones are H or OH. Bridge positions count the residues as written; N and C are the ends. Square brackets hold non-standard residues; d marks the D form. Peptide text beside a SMILES is read from it. I, II: the chains in the order shown. Actinocin(9to1) = Cc1c2oc3c(C)ccc(C(=O)[*:1])c3nc-2c(C(=O)[*:2])c(N)c1=O; NMeV = CN[C@H](C(=O)O)C(C)C; Sar = CNCC(=O)O

test: DSSTox (CPDBAS) Carcinogenic Potency Database Summary SingleCellCall Results; conditions: animal chronic carcinogenicity bioassays, CPDB summary call
From the text: The Carcinogenic Potency Database (CPDB) is a unique and widely used international resource of the results of over 6500 chronic, long-term animal cancer tests on over 1500 chemical substances. The CPDB provides easy access to the bioassay literature, with qualitative and quantitative analyses of both positive and negative experiments that have been published over the past 50 years in the general literature and by the National Cancer Institute/National Toxicology Program. The CPDB standardizes the diverse literature of cancer bioassays that vary widely in protocol, histopathological examination and nomenclature, and in the published author's choices of what information to provide in their papers. Results are reported in the CPDB for tests in rats, mice, hamsters, dogs, and nonhuman primates, and are based on the most positive result among all experiments for each sex-species. The DSSTox CPDBAS (all species) file incorporates data from the CPDB Summary Tables for the full list of over 1500 chemical substances tested in at least one species. A summary SingleCellCall, based on experimental bioassay results of one or more species, is provided for the entire DSSTox CPDBAS file (see Source URL).
An assignment of categorical carcinogenic activity based on minimal evidence for or against activity. […] Associated TD50 values and tumor site details for the relevant species/sex experiment supporting this overall CPDBAS SingleSiteCall are provided in the full CPDBAS DSSTox file (see Comment) and the corresponding CPDBAS Species Bioassay in PubChem.

SMILES	outcome
Cc1c2oc3c(C)ccc(C(=O)N[C@@H]4C(=O)N[C@H](C(C)C)C(=O)N5CCC[C@H]5C(=O)N(C)CC(=O)N(C)[C@@H](C(C)C)C(=O)O[C@@H]4C)c3nc-2c(C(=O)N[C@@H]2C(=O)N[C@H](C(C)C)C(=O)N3CCC[C@H]3C(=O)N(C)CC(=O)N(C)[C@@H](C(C)C)C(=O)O[C@@H]2C)c(N)c1=O (I: T[dV]P[Sar][NMeV] / II: T[dV]P[Sar][NMeV]; ester I:1-I:C, II:1-II:C; linker I:N-II:N via Actinocin(9to1))	active; inactive
CC1CN(N=O)C(=O)O1 (configuration not stated)	active
COc1nn(CSP(=S)(OC)OC)c(=O)s1	active
CCCCCCCCCCCCCCCC(=O)OC/C=C(C)/C=C/C=C(C)/C=C/C1=C(C)CCCC1(C)C	inactive
S=C(S)NCCNC(=S)S	inactive
CCCc1cc(=O)[nH]c(=S)[nH]1	active
NCC(=O)O	active
ClC(Cl)=C(c1ccc(Cl)cc1)c1ccc(Cl)cc1	active
c1ccc(OCC2CO2)cc1 (configuration not stated)	active
CN(N=O)C(N)=O	active; inactive
CBr	inactive; active
CCn1cc(C(=O)O)c(=O)c2cc3c(cc21)OCO3	active
O=S(=O)([O-])[O-].[O]=[V+2]	inactive
O=c1cc[nH]c(=O)[nH]1	active; inactive
O=NN1CCNCC1	active; inactive
O.O.O.O.O.O.O=S(=O)([O-])[O-].[Ni+2]	inactive
CN(C)c1ccc(N=NS(=O)(=O)O)cc1	inactive
Cc1ccc2c(-c3ccccc3)nc(=O)n(C(C)C)c2c1	inactive
Cc1noc(NS(=O)(=O)c2ccc(N)cc2)c1C	inactive
O=P(OC(CCl)CCl)(OC(CCl)CCl)OC(CCl)CCl	active
O=C(O)c1cc(Oc2ccc(C(F)(F)F)cc2Cl)ccc1[N+](=O)[O-]	active
C=CC#N	active
CCOC1=C(O)C(=O)O[C@@H]1[C@@H](O)CO	inactive
Nc1ncn([C@@H]2O[C@H](CO)[C@@H](O)[C@H]2O)c(=O)n1	active
ClC1=C(Cl)[C@]2(Cl)[C@@H]3[C@H]4C=CC(C4)[C@@H]3C1(Cl)C2(Cl)Cl	active

SMILES	outcome
CC(C)=NNc1ncc(-c2ccc([N+](=O)[O-])o2)s1	active; inactive
[O]N=O	inactive
Oc1ccc(Cl)cc1Cc1ccccc1	active
O=C1OC(=O)c2ccccc21	inactive
NC(=O)NNc1ccccc1	active; inactive
CN(N=O)c1ccccn1	active
C[N+](=O)[O-]	active
N=c1ccn2c(n1)O[C@H]1[C@H](O)[C@@H](CO)O[C@H]12	inactive
O=C1C(c2[nH]c3ccc(S(=O)(=O)O)cc3c2O)=Nc2ccc(S(=O)(=O)O)cc21	inactive; active
CNc1ncnc2nc[nH]c12	inactive
CCN(CC)N=O	active; inactive
CCNC(=S)NCC	active
Cc1ccccc1N=O	active
CCN(C#N)N=O	active
C[N+](C)(C)CCO	inactive
CCCCN(CCCC)C(=S)[S-].CCCCN(CCCC)C(=S)[S-].[Ni+2]	inactive; active
CC1CC(=O)O1 (configuration not stated)	active
O=NO	active
Cc1ccc(/C(=C\CN2CCCC2)c2ccccn2)cc1	inactive
C=CCN(CC(C)O)N=O (configuration not stated)	active
c1ccc2n[nH]nc2c1	inactive
Nc1nc(-c2ccc([N+](=O)[O-])cc2)cs1	active
Cc1ncc([N+](=O)[O-])n1CCO	active
CC1=C(C(=O)OC(C)C)C(c2cccc([N+](=O)[O-])c2)C(C(=O)OC2CN(C(c3ccccc3)c3ccccc3)C2)=C(N)N1 (configuration not stated)	inactive; active
ClCC(Cl)Cl	active

SMILES	outcome
COCCl	active; inactive
Cc1cc(O)c(C(C)(C)C)cc1Sc1cc(C(C)(C)C)c(O)cc1C	inactive
Nc1ccc2c(c1)C(=O)c1ccccc1C2=O	active
S=C(NC1CCCCC1)NC1CCCCC1	inactive; active
NNC(=O)c1cccnc1	active
CCCCC/C=N/N(C)C=O	active
O=S1(=O)OCCO1	inactive
Oc1ccc(-c2ccccc2)cc1	inactive; active
Clc1ccc(Sc2cc(Cl)c(Cl)cc2Cl)cc1	inactive
Oc1cccc2cccnc12	inactive
COC(=O)C1=C(C)NC(C)=C(C(=O)OCCN2CCN(C(c3ccccc3)c3ccccc3)CC2)C1c1cccc([N+](=O)[O-])c1 (configuration not stated)	inactive
OCCOCCOCCO	inactive
O=[N+]([O-])c1c(Cl)c(Cl)c(Cl)c(Cl)c1Cl	active
CCOP(=S)(OCC)SC1OCCOC1SP(=S)(OCC)OCC (configuration not stated)	inactive
COC(=O)C1=CCCN(N=O)C1	inactive
C=CCCl	inactive; active
C/C=C\c1ccc(OC)cc1	inactive
CCCCNC(N)=O	inactive
CCN=[N+]([O-])CC	active
COc1c(Cl)c(Cl)c(Cl)c(Cl)c1Cl	active
Brc1cc(-c2ccc(Br)c(Br)c2Br)cc(Br)c1Br	inactive; active
CCCCN(N=O)C(=N)N[N+](=O)[O-]	inactive
CC1(C)[C@@H](OC2O[C@H](C(=O)O)[C@@H](O)[C@H](O)[C@H]2O[C@H]2O[C@H](C(=O)O)[C@@H](O)[C@H](O)[C@H]2O)CC[C@]2(C)[C@H]3C(=O)C=C4[C@@H]5C[C@@](C)(C(=O)O)CC[C@]5(C)CC[C@@]4(C)[C@]3(C)CC[C@@H]12 (some centres not stated)	inactive
O=S(O)S(=O)(=O)O	inactive
C=C/C=N/O	inactive

SMILES	outcome
O=c1[nH]nc(-c2ccc([N+](=O)[O-])o2)o1	active; inactive
C=CCNNCC=C	active; inactive
CN(Cc1cnc2nc(N)nc(N)c2n1)c1ccc(C(=O)N[C@@H](CCC(=O)O)C(=O)O)cc1	inactive
CCC(C)[N+](=O)[O-] (configuration not stated)	active
O=C1C2CC=CCC2C(=O)N1SC(Cl)(Cl)Cl (configuration not stated)	active
CC(C)(C)c1cc(C(C)(C)C)c(O)c(C(C)(C)C)c1	inactive
CC(O)CN(CC(C)O)CC(C)O (configuration not stated)	inactive; active
CCCCCCCCCCCN(C)N=O	active; inactive
CC1=C(/C=C/C(C)=C/C=C/C(C)=C/C(=O)O)C(C)(C)CCC1	inactive
C[C@H](CCC(=O)O)[C@H]1CC[C@H]2[C@@H]3[C@H](O)C[C@@H]4C[C@H](O)CC[C@]4(C)[C@H]3CC[C@]12C	inactive
Nc1ccc(Oc2ccc(Cl)cc2)cc1	active
CCCCC/C=C\C/C=C\CCCCCCCC(=O)OC	inactive
CCCCCC	active
ClCc1cccnc1	active
Cc1ccc(Cl)cc1N	active
CC(=O)N(C(C)=O)c1cccc2c1Cc1ccccc1-2	active
c1ccc(Nc2ccc3ccccc3c2)cc1	inactive
NC(N)=Nc1nc(CSCCNc2nsnc2N)cs1	active
CCCC(CCC)C(=O)O	active
CC(=O)Nc1ccc(O)cc1	active; inactive
NC(=O)N(CCc1ccccc1)N=O	active
CC(C)CN(N=O)C(N)=O	active
O	inactive
C=C(F)F	inactive
S=C1NCCN1	active; inactive

SMILES	outcome
O=C(O)c1cc(=O)[nH]c(=O)[nH]1	inactive
COc1ccc(C(Cl)=C(c2ccc(OC)cc2)c2ccc(OC)cc2)cc1	inactive
Clc1cccc(-c2ccc(Cl)c(Cl)c2Cl)c1Cl	active
CNC(=S)NC	inactive
CCCOC(=O)C1c2cc3c(cc2CC(C)C1C(=O)OCCC)OCO3 (configuration not stated)	inactive
c1ccc2occc2c1	active; inactive
Cc1ccc(C)c(OCCCC(C)(C)C(=O)O)c1	active; inactive
CCC(CC)C(=O)NC(N)=O	inactive; active
CCNC(=O)N(CCN(C)C)N=O	active
ClCOCc1ccc(COCCl)cc1	active
CC1=NN(c2ccccc2)C(=O)C1	inactive
C=CC(OC(C)=O)c1ccc2c(c1)OCO2 (configuration not stated)	active
O=C(O)[C@@H]1[C@H](C(=O)O)[C@@]2(Cl)C(Cl)=C(Cl)[C@]1(Cl)C2(Cl)Cl	active
Nc1ccc2ccccc2c1S(=O)(=O)O	inactive
O=C(O)CC(O)(CC(=O)O)C(=O)O	inactive
COc1c(Cl)c(Cl)c([N+](=O)[O-])c(Cl)c1Cl	inactive
C=CC1CC=CCC1 (configuration not stated)	active
Cn1c(=O)c2[nH]cnc2n(C)c1=O	inactive; active
O=Cc1ccco1	active; inactive
CN(N=O)C(=O)c1c(N(C)N=O)ncn1C	active
CN(C)NC(=O)CCC(=O)O	active
CCN(C=O)CC	inactive; active
